# Assay results as given in patent US7439226B2, “Serine protease inhibitors” (The United States of America as represented by the …, priority 2003, dated 2008).
# How the values were obtained:
# bovine thrombin = target: T1, bovine thrombin (Bos taurus, UniProt P00735); experiment: Thrombin inhibition, fluorescent substrate N-t-Boc Leu-Arg-Arg-AMC, Ki by Dixon plots; format: biochemical; conditions: read-out: Ki of SFTI-1 (nM), Thrombin; room temperature, pH 8.5
# T1 construct: purchased Sigma (Sigma Chemical Co., St. Louis, Mo.)
# Description: (§1) 13, 2003, and which is incorporated herein by reference.
# thrombin = thrombin (Homo sapiens, UniProt P00734); conditions: background statement; cited from earlier work
# [1] = target: T2, Urokinase-type plasminogen activator (uPA) (Homo sapiens, UniProt P00749); experiment: uPA inhibition, fluorescent substrate N-t-Boc-Leu-Gly-Arg-AMC, Ki by Dixon plots; format: biochemical; conditions: room temperature, pH 8.5
# T2 construct: from a partially purified uPA from human urine; from tissue; host or cells: human urine
# Description: as §1
# Factor Xa = Factor Xa (Homo sapiens, UniProt P00742); conditions: Luckett et al. J Mol. Biol. 1999; cited from earlier work
# Chain of Factor Xa (P00742 235-488 limits assumed): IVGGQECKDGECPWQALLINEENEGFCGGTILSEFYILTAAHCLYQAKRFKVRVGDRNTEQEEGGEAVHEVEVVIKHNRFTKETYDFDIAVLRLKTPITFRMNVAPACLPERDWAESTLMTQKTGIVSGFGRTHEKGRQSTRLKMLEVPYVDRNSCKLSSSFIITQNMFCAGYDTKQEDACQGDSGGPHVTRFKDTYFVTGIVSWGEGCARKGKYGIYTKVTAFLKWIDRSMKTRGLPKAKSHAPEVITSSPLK
# Chain of Factor Xa (P00742 41-179 partner limits assumed): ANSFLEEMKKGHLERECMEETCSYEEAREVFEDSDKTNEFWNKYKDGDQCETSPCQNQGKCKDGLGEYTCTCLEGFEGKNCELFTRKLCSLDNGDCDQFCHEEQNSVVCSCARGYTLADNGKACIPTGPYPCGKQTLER
# elastase = conditions: background statement; cited from earlier work
# matriptase = matriptase (Homo sapiens, UniProt Q9Y5Y6); conditions: background statement; cited from earlier work
# Chain of matriptase (Q9Y5Y6 whole entry, species assumed): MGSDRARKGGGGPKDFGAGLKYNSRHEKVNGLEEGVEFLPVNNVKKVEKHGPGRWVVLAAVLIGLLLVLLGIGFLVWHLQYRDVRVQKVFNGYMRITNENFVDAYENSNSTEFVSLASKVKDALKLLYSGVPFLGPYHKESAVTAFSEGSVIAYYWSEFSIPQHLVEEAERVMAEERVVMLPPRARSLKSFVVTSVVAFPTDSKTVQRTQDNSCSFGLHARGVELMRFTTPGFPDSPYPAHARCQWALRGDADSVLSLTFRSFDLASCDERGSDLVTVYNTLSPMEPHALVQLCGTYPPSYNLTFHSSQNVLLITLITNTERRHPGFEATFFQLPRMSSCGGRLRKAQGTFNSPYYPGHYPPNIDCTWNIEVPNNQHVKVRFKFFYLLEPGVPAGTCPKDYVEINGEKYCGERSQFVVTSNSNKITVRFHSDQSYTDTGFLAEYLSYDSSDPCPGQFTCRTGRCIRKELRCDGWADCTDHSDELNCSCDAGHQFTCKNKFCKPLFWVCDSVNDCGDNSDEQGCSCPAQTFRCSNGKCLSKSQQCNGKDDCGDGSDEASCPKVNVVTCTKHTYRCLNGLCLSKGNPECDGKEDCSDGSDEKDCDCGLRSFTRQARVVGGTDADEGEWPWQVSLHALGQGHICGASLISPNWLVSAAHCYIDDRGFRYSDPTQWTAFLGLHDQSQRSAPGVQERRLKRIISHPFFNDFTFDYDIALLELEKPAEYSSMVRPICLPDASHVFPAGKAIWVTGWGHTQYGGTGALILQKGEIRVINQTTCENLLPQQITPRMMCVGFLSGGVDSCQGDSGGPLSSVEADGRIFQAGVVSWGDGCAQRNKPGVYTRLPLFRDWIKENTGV
# cathepsin G = target: T3, cathepsin G (Homo sapiens, UniProt P08311); conditions: background statement; cited from earlier work
# T3 sequence (P08311 21-244): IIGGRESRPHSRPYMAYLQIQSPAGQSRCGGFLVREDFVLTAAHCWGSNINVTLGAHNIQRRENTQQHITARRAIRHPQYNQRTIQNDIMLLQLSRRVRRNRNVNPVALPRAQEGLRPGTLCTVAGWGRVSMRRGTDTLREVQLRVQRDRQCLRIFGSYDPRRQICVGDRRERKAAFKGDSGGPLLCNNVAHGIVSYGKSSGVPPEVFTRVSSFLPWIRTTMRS
smiles,measurement,setting,value
CC[C@H](C)[C@@H]1NC(=O)[C@@H]2CCCN2C(=O)[C@@H]2CCCN2C(=O)[C@H]([C@@H](C)CC)NC(=O)[C@H](CO)NC(=O)[C@H](CCCCN)NC(=O)[C@H]([C@@H](C)O)NC(=O)[C@@H]2CSSC[C@H](NC1=O)C(=O)N[C@@H](Cc1ccccc1)C(=O)N1CCC[C@H]1C(=O)N[C@@H](CC(=O)O)C(=O)NCC(=O)N[C@@H](CCCNC(=N)N)C(=O)N2 [SFTI-1],Ki,bovine thrombin,5050 nM
same,inhibitory activity against thrombin compared with matriptase,thrombin,three orders of magnitude lower
same,Ki,[1],500 µM
same,effect on the activity of Factor Xa,Factor Xa,no detectable effect
same,inhibitory activity against elastase compared with matriptase,elastase,three orders of magnitude lower
same,inhibitory constant (Ki) against matriptase,matriptase,subnanomolar
same,inhibitory constant (Ki) against cathepsin G,cathepsin G,subnanomolar
